Read-outs that look alike come from different tables or passages of the source. Peptide text beside a SMILES is read from it. * marks the point of attachment. X1 = OCC1OC(*)C(O)C(O)C1O; Cbz = O=C(OCc1ccccc1)*
T1: Recombinant α1,2-Mannosyltransferase (Saccharomyces cerevisiae, UniProt P27809)
T1 construct: made in house; host or cells: E. coli XL1-Blue, periplasmic fraction
T1 sequence (P27809 31-442): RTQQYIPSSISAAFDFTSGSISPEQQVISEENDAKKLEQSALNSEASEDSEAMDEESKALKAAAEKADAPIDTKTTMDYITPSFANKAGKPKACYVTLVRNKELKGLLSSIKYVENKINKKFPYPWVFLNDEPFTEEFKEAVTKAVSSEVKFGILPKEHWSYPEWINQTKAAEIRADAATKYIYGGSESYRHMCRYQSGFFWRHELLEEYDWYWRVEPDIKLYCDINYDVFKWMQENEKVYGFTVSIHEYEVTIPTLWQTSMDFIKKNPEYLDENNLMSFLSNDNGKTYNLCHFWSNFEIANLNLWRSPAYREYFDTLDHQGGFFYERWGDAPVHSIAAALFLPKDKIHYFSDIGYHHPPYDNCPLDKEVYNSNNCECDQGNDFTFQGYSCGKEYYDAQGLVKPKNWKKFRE


What was measured:
[1] = biological target: T1, Recombinant α1,2-Mannosyltransferase; assay: Substrate specificity and enzyme kinetics of the mannosyltransfer reaction (GDP-Man + acceptor); format: biochemical; conditions: for substrate (acceptor) quality in words: 150 mM substrate, 3.3 mM GDP-Man; for Vrelative: calculated as the ratio of Vmax, ManαOMe = 1.0
Protocol: GDP-Man (^14C) (10 mM, 10 mL), α-methyl mannopyranoside (500 mM, 10 μL) and the enzyme solution (10 μL) were mixed in a buffer containing 50 mM HEPES (pH 7.2), 0.1 percent Triton and 10 mM MnCl2. The mixture was incubated at 30.0° C. for one hour. The unreacted GDP-mannose was removed by adding QAE-Sephadex (400 μL) to the solution. After the resin was removed by centrifugation, the radioactivity of the solution was counted in 10 mL of scintillation fluid. Controls were carried out by omitting the acceptor or the enzyme. The substrate specificity was determined in a 30 μL assay solution containing 150 mM substrate, 3.3 mM GDP-Man, overproduced α1,2-ManT, 50 mM HEPES (pH 7.2), 0.1 percent Triton and 10 mM MnCl2. The mixture was incubated at 30° C. for 1 hour and the formation of product was determined by the radioactivity assay. Initial velocities were measured as described in the enzyme assay at various concentrations of acceptors for kinetic studies. From the Lineweaver-Burk plots of the data, Km and Vmax were determined.

[2] = tested on: native α1,2-mannosyltransferase; conditions: native enzyme, literature value for comparison; cited from earlier work
[3] = Enzyme stability study; format: physicochemical; conditions: after four days at 20° C. in 100 mM Tris-HCl, 5 mM MgCl2 buffer, pH 7.4
Protocol: The enzyme was incubated at room temperature in 100 mM Tris-HCl buffer, 5 mM MgCl2, pH 7.4, containing 0.5 mM dithiothreitol. At different time intervals, 10 μL aliquots were taken and assayed for mannosyltransferase activity as described above.

[4] = Organic solvent effect study on the mannosyltransfer reaction; format: biochemical
Protocol: GDP-Man (^14C) (10 mM, 10 μL) and methyl mannopyranoside (500 mM, 10 μL) were mixed with a certain volume of an organic solvent and H2O to achieve the desired organic solvent concentration. The enzyme (10 μL) was then added to the mixture. The solution was incubated at 30.0° C. for 1 hour. The enzyme activity was measured as described in the enzyme assay section.

[5] = α1,2-Mannosyltransferase activity assay; format: biochemical; conditions: after Superose and Mono Q FPLC purification; one unit transfers 1.0 μmol mannose per minute at 30° C.
Protocol: GDP-Man (^14C) (10 mM, 10 mL), α-methyl mannopyranoside (500 mM, 10 μL) and the enzyme solution (10 μL) were mixed in a buffer containing 50 mM HEPES (pH 7.2), 0.1 percent Triton and 10 mM MnCl2. The mixture was incubated at 30.0° C. for one hour. The unreacted GDP-mannose was removed by adding QAE-Sephadex (400 μL) to the solution. After the resin was removed by centrifugation, the radioactivity of the solution was counted in 10 mL of scintillation fluid. Controls were carried out by omitting the acceptor or the enzyme.

[6] = acceptor substrate of recombinant enzyme, read-out: Km value
[7] = acceptor with GDP-Man, Lineweaver-Burk plots, 30° C., pH 7.2, read-out: Km (acceptor)

Molecule | substrate (acceptor) quality in words ([1]; recombinant α1,2-ManT) | Vrelative ([1]; acceptor with GDP-Man) | further results
OC[C@H]1NC[C@@H](O)[C@@H](O)[C@@H]1O [1-deoxymannojirimycin, reference compound] | neither a substrate |  | inhibitor of α1,2-ManT in words ([1]; recombinant α1,2-ManT): nor an inhibitor
CO[C@H]1O[C@H](CO)[C@@H](O)[C@H](O)[C@@H]1O [Compound 1, α-methylmannopyranoside, reference compound] |  | 1.0 | Km [1, 6]: 57 mM; Km [1, 7]: 57 mM
O=C[C@@H](O)[C@@H](O)[C@H](O)[C@H](O)CO [Compound 2, mannose] |  | 0.46 | Km (acceptor) ([1]; acceptor with GDP-Man, Lineweaver-Burk plots, 30° C., pH 7.2): 193 mMO; Km [2]: 100 mM
CO[C@H]1O[C@H](CO)[C@@H](O)[C@H](O)[C@@H]1O[C@H]1O[C@H](CO)[C@@H](O)[C@H](O)[C@@H]1O [Compound 3, Manα1,2ManαOMe] |  | 0.62 | Km [1, 6]: 28 mM; Km [1, 7]: 28 mM
CO[C@H]1O[C@H](C)[C@@H](O)[C@H](O)[C@@H]1O [Compound 4, Methyl 6-Deoxy-α-D-mannopyranoside] | poor substrates | 0.06 | 
CO[C@H]1O[C@H](CN=[N+]=[N-])[C@@H](O)[C@H](O)[C@@H]1O [Compound 5, 6-Azido-6-deoxy-ManαOMe] | poor substrates | 0.02 | 
CO[C@H]1O[C@H](CN)[C@@H](O)[C@H](O)[C@@H]1O [Compound 6, 6-Amino-6-deoxy-ManαOMe] | poor substrates | 0.07 | 
COC(=O)C(NC(=O)C(N)C(C)OC1OC(CO)C(O)C(O)C1O)C(C)C (stereo not drawn) [Compound 8, Thr(α-Man)-Val-OMe] | good substrates | 0.68 | 
Cbz-Thr(α-Man)-Val-OMe [Compound 7] | comparable with ManαOMe as an acceptor | 0.71 | Km [1, 7]: 7.8 mM
recombinant α1,2-ManT: water-dispersible recombinant α1,2-mannosyltransferase catalytic domain, residues about 31-442 of the S. cerevisiae enzyme, expressed in E. coli (protein) RTQQYIPSSISAAFDFTSGSISPEQQVISEENDAKKLEQSALNSEASEDSEAMDEESKALKAAAEKADAPIDTKTTMDYITPSFANKAGKPKACYVTLVRNKELKGLLSSIKYVENKINKKFPYPWVFLNDEPFTEEFKEAVTKAVSSEVKFGILPKEHWSYPEWINQTKAAEIRADAATKYIYGGSESYRHMCRYQSGFFWRHELLEEYDWYWRVEPDIKLYCDINYDVFKWMQENEKVYGFTVSIHEYEVTIPTLWQTSMDFIKKNPEYLDENNLMSFLSNDNGKTYNLCHFWSNFEIANLNLWRSPAYREYFDTLDHQGGFFYERWGDAPVHSIAAALFLPKDKIHYFSDIGYHHPPYDNCPLDKEVYNSNNCECDQGNDFTFQGYSCGKEYYDAQGLVKPKNWKKFRE |  |  | activity retained [3]: more than 90%; remaining activity ([4]; 10-percent DMF-buffer solution): about 80%; remaining activity ([4]; 10 percent acetonitrile-buffer solution): about 50%; loss of activity ([4]; DMF or acetonitrile increased to 20 percent): 95%; tolerated acetone concentration ([4]; acetone-buffer solution): ≤ 20%; tolerated methanol concentration ([4]; methanol-buffer solution): up to 30%; specific activity [5]: about 1 unit/mg

Now from value to molecule, other results behind:

substrate (acceptor) quality in words ([1]; recombinant α1,2-ManT) | Vrelative ([1]; acceptor with GDP-Man) | Molecule | further results
good substrates | 0.55 | CC(NC(=O)CNC(=O)C(NC(=O)C(NC(=O)OCc1ccccc1)C(C)OC1OC(CO)C(O)C(O)C1O)C(C)C)C(N)=O (stereo not drawn) [Compound 9, Cbz-Thr(α-Man)-Val-Gly-Ala-NH2] (Cbz-T(X1)VGA-NH2; configuration not given here) | 
 | 0.17 | COC(=O)C(NC(=O)C(NC(=O)OCc1ccccc1)C(C)OC1OC(CO)C(O)C(O)C1OC1OC(CO)C(O)C(O)C1O)C(C)C (stereo not shown) [Compound 11, Cbz-Thr(αManα1,2Man)-Val-OMe] | Km [1, 7]: 26 mM
 | 0.00 | CO[C@H]1O[C@H](COS(=O)(=O)c2ccc(C)cc2)[C@@H](O)[C@H](O)[C@@H]1O [Compound 12, 6-Tosyl-ManαOMe] | 
not substrates | 0.00 | O=[N+]([O-])c1ccc(O[C@H]2O[C@H](CO)[C@@H](O)[C@H](O)[C@@H]2O)cc1 [Compound 13, p-nitrophenyl α-mannopyranoside, reference compound] | 
not substrates |  | O=C[C@@H](O)[C@H](O)[C@H](O)[C@H](O)CO [D-altrose, reference compound] | 
not substrates |  | O=C[C@@H](O)[C@H](O)[C@H](O)CO [D-arabinose, reference compound] | 
not substrates |  | O=C[C@@H](O)[C@H](O)[C@@H](O)[C@H](O)CO [D-idose, reference compound] | 
not substrates |  | O=C[C@@H](O)[C@@H](O)[C@H](O)CO [D-lyxose, reference compound] | 
not substrates |  | O=C[C@@H](O)[C@@H](O)[C@@H](O)[C@H](O)CO [D-talose, reference compound] | 
 | 0.35 | Boc-Try-Thr(α-Man)-Val-OMe [Compound 10] | Km [1, 6]: 0.7 mM; Km [1, 7]: 0.7 mM; Km, times less than that of Compound 7 ([1]; ratio of Km values): 10 times; Km, times smaller than that of ManαOMe (Compound 1) ([1]; ratio of Km values): 80 times
